Source: patent US10870647B2, “Imidazopyridine derivative, method for preparing same, and pharmaceutical composition containing same as active ingredient for preventing or treating cancer” (DAEGU-GYEONGBUK MEDICAL INNOVATION FOUNDATION, priority 2016, dated 2020)
Where two headings read alike, the source gives them in different places.

Columns and labels:
Assay in all cases: Kinase selectivity, scanMAX Kinase assay panel (DiscoverX), % control at 1 uM
Assay type in all cases: binding
[1] = target: T1, scanMAX Kinase assay panel (Homo sapiens, UniProt Q15349); conditions: 1 uM, read-out: Percent Control (%)
T1 construct: purchased DiscoverX
In short: (§1)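 Single-point screen at 1 uM compound in DMSO. Lower % control means stronger inhibition, with the cutoff for activity set at <35%.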

[2] = target: T2, scanMAX Kinase assay panel (Homo sapiens, UniProt P53671); conditions: LIMK2; 1 uM; read-out: Percent Control (%)
T2 construct: purchased DiscoverX
In short: as §1

[3] = target: T3, scanMAX Kinase assay panel (Homo sapiens, UniProt P00533, L858R); conditions: EGFR (L858R); 1 uM; read-out: Percent Control (%)
T3 construct: purchased DiscoverX
In short: as §1

[4] = target: T4, scanMAX Kinase assay panel (Homo sapiens, UniProt P00519, T315I); conditions: 1 uM, read-out: Percent Control (%)
T4 construct: purchased DiscoverX
In short: as §1

[5] = target: T5, scanMAX Kinase assay panel (Homo sapiens, UniProt P24941); conditions: CDK2; 1 uM; read-out: Percent Control (%)
T5 construct: purchased DiscoverX
In short: as §1

[6] = target: T6, scanMAX Kinase assay panel (Homo sapiens, UniProt P04629); conditions: TRKA; 1 uM; read-out: Percent Control (%)
T6 construct: purchased DiscoverX
In short: as §1

[7] = target: T7, scanMAX Kinase assay panel (Homo sapiens, UniProt Q9NSY1); conditions: BIKE; 1 uM; read-out: Percent Control (%)
T7 construct: purchased DiscoverX
In short: as §1

[8] = target: T8, scanMAX Kinase assay panel (Homo sapiens, UniProt Q15569); conditions: TESK1; 1 uM; read-out: Percent Control (%)
T8 construct: purchased DiscoverX
In short: as §1

[9] = target: T9, scanMAX Kinase assay panel (Homo sapiens, UniProt O94921); conditions: PFTK1; 1 uM; read-out: Percent Control (%)
T9 construct: purchased DiscoverX
In short: as §1

[10] = target: T10, scanMAX Kinase assay panel (Homo sapiens, UniProt O15111); conditions: IKK-alpha; 1 uM; read-out: Percent Control (%)
T10 construct: purchased DiscoverX
T10 sequence (O15111 1-745): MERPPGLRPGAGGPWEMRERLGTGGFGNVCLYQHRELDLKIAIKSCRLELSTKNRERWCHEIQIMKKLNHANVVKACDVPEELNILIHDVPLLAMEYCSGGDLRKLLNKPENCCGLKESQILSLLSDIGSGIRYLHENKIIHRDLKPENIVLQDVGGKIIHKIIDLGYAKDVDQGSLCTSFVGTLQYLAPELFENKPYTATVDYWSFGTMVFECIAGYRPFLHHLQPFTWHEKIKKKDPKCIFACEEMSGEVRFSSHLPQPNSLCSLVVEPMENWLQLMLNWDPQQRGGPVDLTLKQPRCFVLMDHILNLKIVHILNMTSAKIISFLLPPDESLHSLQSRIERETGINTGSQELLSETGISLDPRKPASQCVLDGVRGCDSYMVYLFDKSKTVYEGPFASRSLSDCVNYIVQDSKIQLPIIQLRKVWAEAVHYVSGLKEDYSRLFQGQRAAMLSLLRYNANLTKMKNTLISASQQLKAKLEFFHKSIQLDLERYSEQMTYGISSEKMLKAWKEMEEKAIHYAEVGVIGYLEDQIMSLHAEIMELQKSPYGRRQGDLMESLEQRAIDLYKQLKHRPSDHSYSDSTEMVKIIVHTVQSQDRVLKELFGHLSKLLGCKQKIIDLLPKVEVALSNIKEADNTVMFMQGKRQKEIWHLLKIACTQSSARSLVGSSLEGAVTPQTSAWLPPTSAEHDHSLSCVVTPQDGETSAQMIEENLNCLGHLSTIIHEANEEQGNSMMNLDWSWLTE
In short: as §1

[11] = target: T11, scanMAX Kinase assay panel (Homo sapiens, UniProt Q9Y243); conditions: AKT3; 1 uM; read-out: Percent Control (%)
T11 construct: purchased DiscoverX
In short: as §1

T6 sequence (P04629 33-796): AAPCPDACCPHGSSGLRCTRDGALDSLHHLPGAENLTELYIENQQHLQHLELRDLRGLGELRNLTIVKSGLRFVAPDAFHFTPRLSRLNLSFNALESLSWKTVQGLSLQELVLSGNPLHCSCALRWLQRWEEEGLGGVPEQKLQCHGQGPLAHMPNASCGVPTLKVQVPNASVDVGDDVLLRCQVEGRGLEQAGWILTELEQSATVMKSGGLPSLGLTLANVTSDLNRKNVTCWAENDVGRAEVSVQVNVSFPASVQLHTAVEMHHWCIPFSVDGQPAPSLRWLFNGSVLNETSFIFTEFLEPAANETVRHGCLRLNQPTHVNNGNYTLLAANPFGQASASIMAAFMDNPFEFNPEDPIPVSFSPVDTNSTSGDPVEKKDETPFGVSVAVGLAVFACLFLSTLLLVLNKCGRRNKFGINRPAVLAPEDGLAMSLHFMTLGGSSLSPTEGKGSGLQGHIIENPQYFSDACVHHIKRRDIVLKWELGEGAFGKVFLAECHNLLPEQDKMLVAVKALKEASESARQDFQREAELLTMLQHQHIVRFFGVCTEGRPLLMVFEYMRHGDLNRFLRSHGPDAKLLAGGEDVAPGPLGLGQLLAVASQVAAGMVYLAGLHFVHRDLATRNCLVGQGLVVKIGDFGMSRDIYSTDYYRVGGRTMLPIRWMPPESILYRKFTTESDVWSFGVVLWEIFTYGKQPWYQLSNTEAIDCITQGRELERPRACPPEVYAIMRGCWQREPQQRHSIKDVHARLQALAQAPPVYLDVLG
T1 sequence (Q15349 whole entry): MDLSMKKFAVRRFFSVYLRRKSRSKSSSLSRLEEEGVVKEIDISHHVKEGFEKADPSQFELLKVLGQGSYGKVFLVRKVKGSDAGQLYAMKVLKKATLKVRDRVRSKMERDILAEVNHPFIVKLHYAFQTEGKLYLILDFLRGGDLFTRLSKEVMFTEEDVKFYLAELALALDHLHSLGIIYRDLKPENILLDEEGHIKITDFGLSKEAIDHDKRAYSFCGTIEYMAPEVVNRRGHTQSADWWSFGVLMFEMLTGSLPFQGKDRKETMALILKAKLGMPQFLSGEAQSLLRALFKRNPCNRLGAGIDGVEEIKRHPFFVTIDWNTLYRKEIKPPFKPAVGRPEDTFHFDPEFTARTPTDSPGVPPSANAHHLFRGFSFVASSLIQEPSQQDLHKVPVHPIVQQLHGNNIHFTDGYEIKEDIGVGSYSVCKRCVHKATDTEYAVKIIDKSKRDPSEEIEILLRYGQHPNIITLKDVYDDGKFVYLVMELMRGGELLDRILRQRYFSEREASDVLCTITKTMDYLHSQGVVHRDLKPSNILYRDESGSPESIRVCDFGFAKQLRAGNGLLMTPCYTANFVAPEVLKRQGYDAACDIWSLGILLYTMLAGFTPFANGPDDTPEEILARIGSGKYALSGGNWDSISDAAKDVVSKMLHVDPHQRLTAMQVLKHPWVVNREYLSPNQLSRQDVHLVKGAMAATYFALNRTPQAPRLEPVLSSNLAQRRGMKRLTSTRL
T9 sequence (O94921 whole entry): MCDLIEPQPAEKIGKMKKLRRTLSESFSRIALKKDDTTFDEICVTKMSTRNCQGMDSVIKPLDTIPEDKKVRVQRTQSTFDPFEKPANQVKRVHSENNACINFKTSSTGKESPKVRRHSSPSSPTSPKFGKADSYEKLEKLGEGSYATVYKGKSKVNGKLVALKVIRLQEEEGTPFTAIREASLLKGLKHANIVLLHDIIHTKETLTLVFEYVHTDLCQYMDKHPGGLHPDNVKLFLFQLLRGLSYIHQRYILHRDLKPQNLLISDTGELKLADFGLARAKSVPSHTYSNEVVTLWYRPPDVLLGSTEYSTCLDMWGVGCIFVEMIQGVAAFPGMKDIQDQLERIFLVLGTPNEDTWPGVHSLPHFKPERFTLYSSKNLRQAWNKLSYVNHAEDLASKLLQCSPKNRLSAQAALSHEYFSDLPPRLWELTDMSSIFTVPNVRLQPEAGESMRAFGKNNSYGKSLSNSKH
T11 sequence (Q9Y243 whole entry): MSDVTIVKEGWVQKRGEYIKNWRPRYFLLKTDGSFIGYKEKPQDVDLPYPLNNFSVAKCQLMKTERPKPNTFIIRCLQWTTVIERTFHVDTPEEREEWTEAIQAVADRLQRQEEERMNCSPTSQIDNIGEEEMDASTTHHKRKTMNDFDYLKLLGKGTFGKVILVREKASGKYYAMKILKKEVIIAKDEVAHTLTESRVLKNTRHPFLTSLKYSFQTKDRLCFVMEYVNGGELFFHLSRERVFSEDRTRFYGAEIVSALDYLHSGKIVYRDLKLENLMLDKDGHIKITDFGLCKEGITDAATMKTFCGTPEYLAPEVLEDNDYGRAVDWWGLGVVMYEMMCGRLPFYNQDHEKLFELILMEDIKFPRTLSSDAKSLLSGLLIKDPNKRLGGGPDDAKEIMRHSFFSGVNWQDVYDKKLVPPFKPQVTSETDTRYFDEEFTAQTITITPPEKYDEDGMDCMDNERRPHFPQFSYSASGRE
T8 sequence (Q15569 whole entry): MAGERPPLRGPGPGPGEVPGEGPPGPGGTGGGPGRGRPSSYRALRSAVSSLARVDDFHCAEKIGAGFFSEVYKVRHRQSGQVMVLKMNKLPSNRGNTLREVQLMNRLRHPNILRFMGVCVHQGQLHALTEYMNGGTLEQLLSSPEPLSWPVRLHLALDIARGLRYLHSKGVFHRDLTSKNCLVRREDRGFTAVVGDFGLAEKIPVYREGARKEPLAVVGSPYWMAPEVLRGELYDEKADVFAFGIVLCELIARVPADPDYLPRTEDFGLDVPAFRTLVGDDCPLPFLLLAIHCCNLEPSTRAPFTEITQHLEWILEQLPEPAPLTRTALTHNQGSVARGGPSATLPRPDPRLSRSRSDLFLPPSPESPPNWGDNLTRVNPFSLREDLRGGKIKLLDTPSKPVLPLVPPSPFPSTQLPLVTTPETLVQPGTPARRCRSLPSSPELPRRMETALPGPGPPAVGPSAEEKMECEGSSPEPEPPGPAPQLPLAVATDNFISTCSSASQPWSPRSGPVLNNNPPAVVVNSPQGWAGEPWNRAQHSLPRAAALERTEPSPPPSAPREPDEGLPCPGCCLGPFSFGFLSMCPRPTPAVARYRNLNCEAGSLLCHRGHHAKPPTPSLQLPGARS
T2 sequence (P53671 whole entry): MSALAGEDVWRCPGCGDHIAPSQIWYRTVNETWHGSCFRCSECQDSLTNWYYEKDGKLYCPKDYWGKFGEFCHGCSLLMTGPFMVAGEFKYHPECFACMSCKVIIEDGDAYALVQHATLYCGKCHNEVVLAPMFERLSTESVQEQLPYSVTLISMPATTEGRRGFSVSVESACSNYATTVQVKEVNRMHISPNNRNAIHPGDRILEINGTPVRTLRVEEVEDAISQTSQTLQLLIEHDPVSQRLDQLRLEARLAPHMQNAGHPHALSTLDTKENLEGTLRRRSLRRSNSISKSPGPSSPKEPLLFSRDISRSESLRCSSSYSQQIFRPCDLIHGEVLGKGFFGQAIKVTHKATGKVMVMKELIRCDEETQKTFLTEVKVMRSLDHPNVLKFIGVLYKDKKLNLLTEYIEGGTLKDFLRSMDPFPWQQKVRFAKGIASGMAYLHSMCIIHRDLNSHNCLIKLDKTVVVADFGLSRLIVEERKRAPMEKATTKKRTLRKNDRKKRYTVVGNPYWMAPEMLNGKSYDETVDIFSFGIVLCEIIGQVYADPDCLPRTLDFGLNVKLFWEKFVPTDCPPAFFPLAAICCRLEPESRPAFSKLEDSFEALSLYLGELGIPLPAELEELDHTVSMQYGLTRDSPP
T3 sequence (P00533 25-1210 L858R): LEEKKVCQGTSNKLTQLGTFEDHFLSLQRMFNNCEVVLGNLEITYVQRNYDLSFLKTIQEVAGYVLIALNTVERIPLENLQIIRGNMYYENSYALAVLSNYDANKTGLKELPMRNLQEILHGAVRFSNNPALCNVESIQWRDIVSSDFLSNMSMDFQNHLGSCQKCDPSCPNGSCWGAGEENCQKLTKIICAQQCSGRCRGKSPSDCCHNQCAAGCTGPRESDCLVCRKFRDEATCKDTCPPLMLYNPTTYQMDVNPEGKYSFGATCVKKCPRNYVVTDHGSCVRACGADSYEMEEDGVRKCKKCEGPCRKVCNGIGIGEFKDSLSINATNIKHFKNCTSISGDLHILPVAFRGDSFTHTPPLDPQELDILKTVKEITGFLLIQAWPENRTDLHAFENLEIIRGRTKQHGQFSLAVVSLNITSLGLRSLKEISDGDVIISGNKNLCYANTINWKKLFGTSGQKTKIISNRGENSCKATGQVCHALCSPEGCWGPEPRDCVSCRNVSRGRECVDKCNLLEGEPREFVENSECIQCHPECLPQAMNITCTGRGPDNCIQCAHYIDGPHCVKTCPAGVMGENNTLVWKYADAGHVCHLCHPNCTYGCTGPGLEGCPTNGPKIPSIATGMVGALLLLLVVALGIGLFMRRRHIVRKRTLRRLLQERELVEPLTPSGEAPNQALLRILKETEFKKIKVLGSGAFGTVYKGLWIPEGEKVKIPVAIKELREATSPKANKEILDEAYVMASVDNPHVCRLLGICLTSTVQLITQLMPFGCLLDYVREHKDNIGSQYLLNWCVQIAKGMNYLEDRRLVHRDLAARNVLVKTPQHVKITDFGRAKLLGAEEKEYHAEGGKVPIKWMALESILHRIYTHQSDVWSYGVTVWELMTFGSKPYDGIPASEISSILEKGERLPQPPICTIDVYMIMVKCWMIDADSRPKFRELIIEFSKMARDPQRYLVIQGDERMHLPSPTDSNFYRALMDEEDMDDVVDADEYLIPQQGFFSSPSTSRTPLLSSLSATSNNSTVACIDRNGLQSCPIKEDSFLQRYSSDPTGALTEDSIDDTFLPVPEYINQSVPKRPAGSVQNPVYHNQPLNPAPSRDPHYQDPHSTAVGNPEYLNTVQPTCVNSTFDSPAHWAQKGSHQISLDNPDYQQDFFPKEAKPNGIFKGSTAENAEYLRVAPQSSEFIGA

SMILES | remaining binding at 1 µM ([1]; RSK3 (Kin.Dom.1-N-terminal)) [%] | remaining binding at 1 µM ([1]; RSK3 (Kin.Dom.2-C-terminal)) [%] | remaining binding at 1 µM [2] [%] | remaining binding at 1 µM [3] [%] | remaining binding at 1 µM ([4]; ABL1 (T315I)-nonphosphorylated) [%] | remaining binding at 1 µM ([4]; ABL1 (T315I)-phosphorylated) [%] | remaining binding at 1 µM [5] [%] | remaining binding at 1 µM [6] [%] | remaining binding at 1 µM [7] [%] | remaining binding at 1 µM [8] [%] | remaining binding at 1 µM [9] [%] | remaining binding at 1 µM [10] [%] | remaining binding at 1 µM [11] [%]
Cc1ccc(C(=O)Nc2ccc(CN3CCN(C)CC3)c(C(F)(F)F)c2)cc1C#Cc1cnc2c(Nc3cnn(C)c3)cccn12 [Example 1, 4-methyl-3-((8-((1-methyl-1H-pyrazol-4-yl)amino)imidazo[1,2-a]pyridin-3-yl)ethynyl)-N-(4-((4-methylpiperazin-1-yl)methyl)-3-(trifluoromethyl)phenyl)benzamide] | 29 | 61 | 3 | 0 | 1 | 1 | 29 | 0 | 81 | 26 | 11 | 2 | 99
Cc1cn(-c2cc(NC(=O)c3ccc(C)c(C#Cc4cnc5c(Nc6cnn(C)c6)cccn45)c3)cc(C(F)(F)F)c2)cn1 [Example 12, 4-methyl-N-(3-(4-methyl-1H-imidazol-1-yl)-5-(trifluoromethyl)phenyl)-3-((8-((1-methyl-1H-pyrazol-4-yl)amino)imidazo[1,2-a]pyridin-3-yl)ethynyl)benzamide] | 65 | 86 | 50 | 47 | 15 | 15 | 85 | 1 | 85 | 81 | 87 | 28 | 99
Cc1ccc(NC(=O)C2(C(=O)Nc3ccc(F)cc3)CC2)cc1C#Cc1cnc2c(Nc3cnn(C(C)C)c3)cccn12 [Example 78] | 97 | 100 | 100 | 84 | 100 | 100 | 95 | 100 | 100 | 100 | 100 | 100 | 95
